Consider 91 molecules from a melting point compilation (Tetko et al.; mined from patent text by program, amines drawn as free bases though some values may be those of a salt).

A value given as a limit tells only on which side of the number the result lay.

Usually melting point stands for the temperature of the solid-liquid transition. Consider `CCOC(=O)C1=C(C)Nc2nc(N3CCOCC3)nc(N3CCOCC3)c2C1c1ccccc1C(F)(F)F` (stereo unspecified), for which the melting point amounted to 214 °C.
In the case of `CCCCCCCCCCCCCCCCOC1=C(OCCCCCCCCCCCCCCCC)c2nc3c(Br)sc(Br)c3nc21` it was 71.5 °C.
In turn, `CC(C)(C)OC(=O)NC(Cc1ccccc1)C(=O)Nc1ccc2[nH]cc(CC#N)c2c1` (stereo unspecified) had a melting point of 146 to 149 °C.
As for `CCn1c(N)c(C(=O)NC)c(=O)c2ccc(-c3ccc(CC(=O)O)cc3)nc21`, the melting point came to 260 °C.
`Fc1ccc2c(C3=CCN(CCC4OCCc5cc(Br)ccc54)CC3)c[nH]c2c1` (stereo unspecified) returned a melting point of 184 to 186 °C.
The molecule `COc1ccc(-c2cc(S(C)(=O)=O)nnc2-c2ccc(OC)cc2)cc1` showed a melting point of 137 to 140 °C.
In the case of `O=C(CCCCCc1ccc(Cl)cc1)N1CCN(c2cnccn2)CC1` it was 88 to 89 °C.
The result for `CCCCCCCCOC(=O)CCCCCNC(=O)c1cc(OCc2ccccc2)ccc1OCc1ccccc1` reads 48 to 50 °C.
As to `CC(C)(O)c1cnn2c(-c3ccc(F)c(-c4ccc(F)cc4C#N)c3)cnc2n1`, the melting point was 215 °C.
The result for `CCN(CC)CCOC(=C1C2CC3C(C2)C13)c1ccccc1` reads 120 to 123 °C.
The result for `C[C@@H](N1CCN(C(=O)c2ccc(F)cc2F)CC1)[C@](O)(Cn1cncn1)c1ccc(F)cc1F` reads 63 to 65 °C.
`O=C(O)c1ccc(Cc2nc3ccccc3[nH]2)cc1` yielded a melting point of 265 to 267 °C.
In the case of `COc1cccc(CNc2nccc(-c3cc(N4CCN(CCCN(C)C5CCCCC5)CC4)c4cc(OC)ccc4c3)n2)c1` it was 155 to 161 °C.
The molecule `CCOC(=O)c1c(C(F)(F)F)nc(C(F)(F)Cl)c(C(=O)OC)c1NC(C)C` returned a melting point of 43.5 to 45 °C.
In the case of `Cc1ccnc(CSCCNc2ncc(Cc3cccnc3)c(=O)[nH]2)c1Br` it was 81 to 85 °C.
The result for `O=c1[nH]c2cc(Cl)cc(Cl)c2c(=O)n1Cc1ccc(F)cc1` reads 301 to 304 °C; that for `COC(=O)Nc1ccccc1CS(=O)c1ncc(C(F)(F)F)cc1Cl` (stereo unspecified), 160 to 162 °C.
The result for `CCOC(=O)Cc1nnnn1C` reads 64 to 66 °C; that for `Cc1cc(-c2nc[nH]n2)ccc1N`, 183 to 186 °C; that for `O=C(CCNCc1cc(F)cc(F)c1)Nc1cccc2c1C(=O)c1c(NC(=O)CCNCc3cc(F)cc(F)c3)cccc1C2=O`, 190 to 191 °C.
On to `O=C(O)COc1ccccc1Cn1nc(-c2cccs2)c(Cc2cc3c(cc2Cl)OCO3)c1C(=O)O`, for which the melting point was over 260 °C.
In the case of `COC(=O)CCC(=O)CCl` it was 8 to 13 °C; in that of `CCCCCCCCCCCCOc1ccc2cc(C(C)C(=O)O)ccc2c1` (stereo unspecified), 96 to 97 °C.
The result for `Cc1cc2c(cc1C)CC(C)NC(=O)C2` (stereo unspecified) reads 226 to 227 °C; that for `Cc1nc2c3c(c(C(=O)N(C)C)cc2n1C)CC[C@@H](c1ccccc1F)O3`, 199 to 201 °C.
The result for `COc1cc(C(=CC#N)c2cc(OC)c(OC)c(OC)c2)ccc1N` reads 123 to 125 °C; that for `CN1C(=O)C=C(c2c[nH]c3ncccc23)C1=O`, over 250 °C.
Regarding `COC(=O)c1cccc(-c2nnc(-c3ccc(C(C)C)cc3)o2)c1`, the melting point is 74 to 77 °C.
As for `CCN(CC)c1ccc2c(c1)O/C(=C1/Oc3cc(N(CC)CC)ccc3C1=O)C2=O`, the melting point turned out to be 292 °C.
In the case of `CC(=O)Nc1cccc(C=O)c1C`, the melting point came out at 160 °C.
The molecule `O=C(OCCN1CCN(c2cccc(C(F)(F)F)c2)CC1)c1sccc1Nc1ccnc2cc(Cl)ccc12` had a melting point of 80 °C.
Take `CCCc1c(OCCOc2cccc(Sc3ccc(C(=O)O)cc3)c2)ccc(C(C)=O)c1O`: the melting point fell in the range of 144 to 146 °C.
The result for `COC(=O)/C=C/c1ccc(C=O)s1` reads 61 to 62.5 °C; that for `Fc1cccc(NC(=S)c2ccccn2)c1`, 72 to 76 °C.
Turning to `O=C(N1CCOc2ccccc21)C(F)(F)F`, the melting point was 58 to 60 °C.
The result for `Cc1ccc(C)c(C(=O)NCC23CC4CC(CC(Cl)(C4)C2)C3)c1` reads 155 °C; that for `C=CCc1cc(C2=NNC(=O)CC2)ccc1OCC1CO1` (stereo unspecified), 92.5 to 95 °C; that for `CCC(C)(C)c1ccc(O)c(C(=O)Nc2ccc([N+](=O)[O-])cc2C)c1`, 150 to 151 °C.
`COC(=O)Cc1cc(NC=O)cc(OC)n1` yielded a melting point of 61 to 63 °C.
For `Cc1nc2nccc(O)c2cc1Br`, the melting point is over 250 °C.
The result for `ClC(=NNc1ccccc1)c1cccc(Cl)c1` reads 80 to 81.5 °C; that for `CCOC(=S)N[C@@H](C)C(=O)O`, 74 to 78 °C; that for `CC(C)NC(=O)OCC(=O)c1ccc(-c2ccccc2)cc1`, 133 to 134 °C.
`COc1ccc2c(c1)CCC(NC(C)=O)(C(=O)O)C2` (stereo unspecified) displayed a melting point of 252 to 254 °C.
As for `Cc1sc2ncc(C(O)C=Cc3ccccc3)n2c1C` (stereo unspecified), the melting point lay within 149 to 151 °C.
In the case of `COc1ccc(CNc2nc(NCc3ccc(C(O)C(F)(F)F)cc3)nc3ncccc23)cc1OC` (stereo unspecified) it was 121 to 122 °C.
In the case of `CC(C)P1(=O)c2ccccc2CN1c1ccccc1` (stereo unspecified) it was 145 to 147 °C; in that of `CS(=O)(=O)CN=C(N)NCCSCc1csc(NC(N)=NCC(F)(F)C(F)(F)F)n1`, 149 to 151 °C.
For `CCC(=O)C1CN(C(c2ccccc2)c2ccccc2)C1`, the melting point was 73 to 75 °C.
Molecule `O=S=NNc1cccc(C(F)(F)F)c1` came in with a melting point of 100 °C.
`O=C(Nc1cccnc1)c1ccc([N+](=O)[O-])cc1` came in with a melting point of 191 to 194 °C.
In the case of `COc1ccc2ccc(NC(=O)c3c(F)cccc3F)nc2n1` it was 219 to 220 °C; in that of `CCOC(=O)c1c(N)c(Cl)cn1C`, 48 °C.
In the case of `CCN(CC)CC1CCCCN1CCNC(=O)N1c2ccc(C)cc2C(=O)Nc2cccnc21` (stereo unspecified) it was 148 to 150 °C.
In the case of `CC(C)(C)c1coc(N)c1C#N` it was 86 °C.
`CCC(C)(C)NC(=O)NC(C)C#N` (stereo unspecified) had a melting point of 129 to 130 °C.
For `CCCCCCCCNC(=O)Nc1ccccc1C(=O)NC1CCN(Cc2ccccc2)CC1`, the melting point amounted to 129 °C.
In the case of `COC(=O)c1ccc(OC)c(I)n1` it was 175 to 178 °C.
Molecule `CCCCCCCCCCCCCCCCCCNC(=O)Nc1cccc([N+](=O)[O-])c1` gave a melting point of 102 to 104 °C.
The result for `CC12CCC3c4ccc(C(=O)O)cc4CCC3C1CCC2C(=O)c1ccc(F)cc1` (stereo unspecified) reads 251 to 254 °C.
`CC1(C2N=NC(=O)O2)CC1` (stereo unspecified) displayed a melting point of 68 to 70 °C.
`CC(c1oc2ccccc2c(=O)c1-c1cccc(F)c1)n1ncc2c(Cl)ncnc21` (stereo unspecified): the melting point was in the range of 197 to 201 °C.
For the molecule `O=C1N(c2ccccc2)CC(CCl)C1(Cl)Cl` (stereo unspecified), the melting point lay within 133 to 134 °C.
As for `O=C(C=CCC(Nc1cc(Cl)cc(Cl)c1I)C(=O)OCc1ccccc1)Nc1ccccc1` (stereo unspecified), the melting point fell in the range of 146 to 148 °C.
With `CC(C#Cc1ccc(Oc2ccc(F)cc2)s1)N(O)C(N)=O` (stereo unspecified), the melting point lay within 149 to 150 °C.
The molecule `CCCc1nc2cnc3ccccc3c2n1CCC1(O)CCOCC1` registered a melting point of 186 to 188 °C.
The molecule `CCCCCCCCCCCCCCCCCC(=O)Nc1cccc(N(CC(=O)OC)CC(=O)OC)c1` showed a melting point of 78 to 79 °C.
In turn, `NS(=O)(=O)c1cc(C(=O)O)cc(NCc2ccc3c(c2)OCO3)c1Oc1ccccc1` displayed a melting point of 229 to 230 °C.
`CCCCC(C)c1cc(O)c2c(c1)OC(C)(C)CC2C1=CCN(Cc2ccc3ccccc3c2)CC1` (stereo unspecified): the melting point was 49 to 52 °C.
`CC(C)(C#N)CN1C(=O)C2(OCCCO2)c2cc(Cl)ccc21` came in with a melting point of 114 to 116 °C.
The result for `CC(=O)CCCCC(=O)Nc1ccccc1` reads 85.5 to 86.5 °C; that for `CCCc1nc2c(N)nc3cccnc3c2n1CC1(O)CC1`, 199 to 200 °C.
Molecule `COc1cc2c(cc1OC)C1N=Cc3cc4c(cc3C1CC2)OCO4` (stereo unspecified) had a melting point of 208 to 210 °C.
The result for `O=c1ncc(Cl)cn1CSc1ccc([N+](=O)[O-])cc1` reads 165 °C; that for `CS(=O)(=O)N(Cc1cccnc1)c1ccc(OCC(F)(F)F)cc1`, 69 to 70 °C.
Molecule `O=C(O)c1c(-c2ccccc2)c(-c2ccccc2)nn1-c1ccccc1` returned a melting point of 190 °C.
The result for `CC1(C)CC(N(c2nc(F)nc(N(C3CC(C)(C)N(O)C(C)(C)C3)C3CC(C)(C)N(O)C(C)(C)C3)n2)C2CC(C)(C)N(O)C(C)(C)C2)CC(C)(C)N1O` reads 254 to 257 °C; that for `COC(=O)c1cc(-c2ccc(OC)c(F)c2)nn(CC=Cc2ccc(Cl)cc2)c1=O`, 131 to 132 °C.
Regarding `Fc1ccc(CN2CCCC(Nc3nccc(-c4c(-c5ccc(F)cc5)nc5sccn45)n3)C2)cc1` (stereo unspecified), the melting point lay within 131 to 133 °C.
The molecule `O=C(NCCO)c1cccc(-c2nc(=O)c3ccccc3s2)n1` gave a melting point of 214 to 215 °C.
For the molecule `COc1ccc(CN2C(=O)CC(C)(C)c3cc(Br)ccc32)cc1`, the melting point is 118 to 119 °C.
The result for `C=CCC(O)CCCCCCCCCOc1ccccc1` (stereo unspecified) reads 50 to 52 °C; that for `CC(C)Cc1cc(OCCc2ccsc2)c2[nH]nc(Nc3nccs3)c2c1`, 150 to 151 °C; that for `CC(C)(C)C(=O)OCOC(=O)Cn1c(=O)c2cc(Cl)ccc2n(Cc2ccc(Cl)c(Cl)c2)c1=O`, 124 to 126 °C.
The molecule `CCCCCCCCCCC(C(=O)CCCCO)P(=O)(c1ccccc1)c1ccccc1` (stereo unspecified) returned a melting point of 70 °C.
The molecule `CN(CCNc1ccc2ncc(Br)n2n1)C(=O)OC(C)(C)C` registered a melting point of 128 to 129 °C.
`CN1CCC(Oc2ccccc2[N+](=O)[O-])(c2ccccc2)CC1` showed a melting point of 80 to 82 °C.
Take `O=C(O)CCN1C(=O)c2ccc([N+](=O)[O-])cc2C1=O`: the melting point lay in the range of 206 to 208 °C.
In the case of `O=c1oc(-c2ccccc2)cc(O)c1CCCc1ccccc1` it was 195 to 196 °C; in that of `CCOC(=O)CC(NC(=O)c1ccc(Cl)cc1)C(=O)C(C)C` (stereo unspecified), 42 to 44 °C.
The result for `N#Cc1c(Cl)ccc2cc(Cl)cnc12` reads 222 °C.
